Several values for one entry are separate records, joined by “and”; a condition that tells them apart may be missing. Equal values may be shown once. Inconclusive results and toxic doses are left out.
Tested on: P388 leukemia ip, CD2F1 mice, survival T/C
Assay: NCI In Vivo Anticancer Drug Screen. Data for tumor model P388 Leukemia (intraperitoneal) in CD2F1 (CDF1) mice
Details: endpoint: median survival time, higher = longer survival
How it was run: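 Mice carrying the transplanted tumor received test compound or vehicle. Survival was recorded in each group, and the value is the treated-group measurement divided by that of the vehicle-treated control group.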

[1] = dose: 50.0 mg/kg/injection, schedule: Q01DX005 (ip), vehicle: Klucel (hydroxypropylcellulose) (HPC)
[2] = dose: 50.0 mg/kg/injection, schedule: Q01DX005 (ip), vehicle: saline with Tween-80
[3] = dose: 100.0 mg/kg/injection, schedule: Q01DX005 (ip), vehicle: Klucel (hydroxypropylcellulose) (HPC)
[4] = dose: 100.0 mg/kg/injection, schedule: Q01DX005 (ip), vehicle: saline with Tween-80
[5] = dose: 200.0 mg/kg/injection, schedule: Q01DX005 (ip), vehicle: saline with Tween-80
[6] = dose: 50.0 mg/kg/injection, schedule: Q01DX009 (ip), vehicle: Klucel (hydroxypropylcellulose) (HPC)
[7] = dose: 100.0 mg/kg/injection, schedule: Q01DX009 (ip), vehicle: Klucel (hydroxypropylcellulose) (HPC)
[8] = dose: 200.0 mg/kg/injection, schedule: Q01DX009 (ip), vehicle: Klucel (hydroxypropylcellulose) (HPC)
[9] = dose: 6.25 mg/kg/injection, schedule: Q01DX009 (ip), vehicle: saline
[10] = dose: 12.5 mg/kg/injection, schedule: Q01DX009 (ip), vehicle: saline
[11] = dose: 25.0 mg/kg/injection, schedule: Q01DX009 (ip), vehicle: saline

In the case of `Cc1ccc(S(=O)(=O)N/N=C/C=C\C(=O)O)cc1`, the T/C (dose: 12.5 mg/kg/injection, schedule: Q01DX009 (ip), vehicle: distilled water + Tween-80) is reported as 101 % of control, the T/C (dose: 25.0 mg/kg/injection, schedule: Q01DX009 (ip), vehicle: distilled water + Tween-80) is reported as 99 % of control and the T/C (dose: 50.0 mg/kg/injection, schedule: Q01DX009 (ip), vehicle: distilled water + Tween-80) is reported as 107 % of control. For the same compound, the T/C (dose: 100.0 mg/kg/injection, schedule: Q01DX009 (ip), vehicle: distilled water + Tween-80) was 100 % of control, the T/C (dose: 200.0 mg/kg/injection, schedule: Q01DX009 (ip), vehicle: distilled water + Tween-80) was 94 % of control and the T/C (dose: 400.0 mg/kg/injection, schedule: Q01DX009 (ip), vehicle: distilled water + Tween-80) was 110 % of control.
With `CC(OCc1ccccc1)C(NC(=O)OC(C)(C)C)C(=O)O` (centres undefined) the T/C [1] was 113 % of control, the T/C [2] was 103 % of control and the T/C [3] was 94 % of control. For the same compound, the T/C [4] was 100 % of control, the T/C (dose: 200.0 mg/kg/injection, schedule: Q01DX005 (ip), vehicle: Klucel (hydroxypropylcellulose) (HPC)) was 96 % of control and the T/C [5] was 98 % of control.
In the case of `COc1cccc2c1-c1nc(N)c3c(OC)cccc3c1C2=O`, the T/C (dose: 100.0 mg/kg/injection, schedule: Q04DX002 (ip), vehicle: Klucel (hydroxypropylcellulose) (HPC)) is reported as 106 % of control, the T/C (dose: 200.0 mg/kg/injection, schedule: Q04DX002 (ip), vehicle: Klucel (hydroxypropylcellulose) (HPC)) is reported as 108 % of control and the T/C (dose: 400.0 mg/kg/injection, schedule: Q04DX002 (ip), vehicle: Klucel (hydroxypropylcellulose) (HPC)) is reported as 107 % of control.
In the case of `CC(=O)NCc1cccc([N+](=O)[O-])c1`, the T/C (dose: 25.0 mg/kg/injection, schedule: Q01DX005 (ip), vehicle: saline with Tween-80) is reported as 100 % of control, the T/C [2] is reported as 103 % of control and the T/C [4] is reported as 100 % of control. The T/C [5] was 105 % of control.
`C[C@@]12CCC[C@@H]1OC(=O)C2` was tested, and the T/C [2] was 98 % of control.
For `CNc1nc2ncnc(NC)c2[nH]1`, the T/C [2] was 99 % of control, the T/C [4] was 92 % of control and the T/C [5] was 90 % of control.
In the case of `Nc1ccc(NS(=O)(=O)c2cccs2)c(O)c1`, the T/C [6] is reported as 97 % of control, the T/C [7] is reported as 94 % of control and the T/C [8] is reported as 105 % of control.
With `CC12CC3CN(C(=O)c4ccccc4)CCC3CC1=Nc1ccccc12` (centres undefined) the T/C (dose: 25.0 mg/kg/injection, schedule: Q04DX002 (ip), vehicle: saline with Tween-80) was 100 % of control, the T/C (dose: 50.0 mg/kg/injection, schedule: Q04DX002 (ip), vehicle: saline with Tween-80) was 103 % of control and the T/C (dose: 100.0 mg/kg/injection, schedule: Q04DX002 (ip), vehicle: saline with Tween-80) was 94 % of control. For the same compound, the T/C (dose: 200.0 mg/kg/injection, schedule: Q04DX002 (ip), vehicle: saline with Tween-80) was 86 % of control.
With `O=C1CC(c2ccccc2)Oc2cc(O)cc(O)c21` (centres undefined) the T/C (dose: 12.5 mg/kg/injection, schedule: Q01DX009 (ip), vehicle: Klucel (hydroxypropylcellulose) (HPC)) was 98 % of control, the T/C (dose: 25.0 mg/kg/injection, schedule: Q01DX009 (ip), vehicle: Klucel (hydroxypropylcellulose) (HPC)) was 98 % of control and the T/C (dose: 50.0 mg/kg/injection, schedule: Q01DX009 (ip), vehicle: other) was 110 % of control. For the same compound, the T/C [7] was 98 % of control, the T/C (dose: 200.0 mg/kg/injection, schedule: Q01DX009 (ip), vehicle: other) was 102 % of control and the T/C (dose: 400.0 mg/kg/injection, schedule: Q01DX009 (ip), vehicle: other) was 102 % of control.
For `Cn1c2cc([N+](=O)[O-])ccc2c(=O)c2c(O)cc(O)cc21`, the T/C (dose: 100.0 mg/kg/injection, schedule: Q01DX001 (ip), vehicle: saline with Tween-80) was 101 % of control, the T/C (dose: 200.0 mg/kg/injection, schedule: Q01DX001 (ip), vehicle: saline with Tween-80) was 92 % of control and the T/C (dose: 400.0 mg/kg/injection, schedule: Q01DX001 (ip), vehicle: saline with Tween-80) was 104 % of control.
`O=C1C(CCl)=CS(=O)(=O)c2ccccc21` was tested, and the T/C [9] was 109 % of control, the T/C [10] was 116 % of control and the T/C [11] was 100 % of control.
For `CCOC(=O)CSc1cc(O)c2ccccc2c1N=Nc1ccc(C(=O)OCC)cc1`, the T/C [2] was 104 % of control, the T/C [4] was 110 % of control and the T/C [5] was 114 % of control.
For `COc1ccc([I+]c2ccc(OC)cc2)cc1`, the T/C (dose: 3.0 mg/kg/injection, schedule: Q01DX009 (ip), vehicle: saline with Tween-80) was 104 % of control and the T/C (dose: 6.0 mg/kg/injection, schedule: Q01DX009 (ip), vehicle: saline with Tween-80) was 120 % of control.
`CC[C@@]1(O)C(=O)OCc2c1cc1n(c2=O)Cc2cc3ccccc3nc2-1` was tested, and the T/C (dose: 0.25 mg/kg/injection, schedule: Q04DX003 (ip), vehicle: other) was 109 % of control, the T/C (dose: 0.5 mg/kg/injection, schedule: Q04DX003 (ip), vehicle: other) was 119 % of control and 122 % of control and the T/C (dose: 0.79 mg/kg/injection, schedule: Q04DX003 (ip), vehicle: other) was 151 % of control. The T/C (dose: 1.0 mg/kg/injection, schedule: Q04DX003 (ip), vehicle: other) was 163 % of control, the T/C (dose: 1.5 mg/kg/injection, schedule: Q01DX005 (ip), vehicle: saline with Tween-80) was 153 % of control and 161 % of control (2×) and the T/C (dose: 1.57 mg/kg/injection, schedule: Q04DX003 (ip), vehicle: other) was 161 % of control. The T/C (dose: 1.6 mg/kg/injection, schedule: Q04DX003 (ip), vehicle: saline with Tween-80) was 150 % of control, the T/C (dose: 2.0 mg/kg/injection, schedule: Q04DX003 (ip), vehicle: other) was 157 % of control and 158 % of control and the T/C (dose: 2.1 mg/kg/injection, schedule: Q01DX005 (ip), vehicle: saline with Tween-80) was 187 % of control. For the same compound, the T/C (dose: 2.5 mg/kg/injection, schedule: Q04DX003 (ip), vehicle: saline with Tween-80) was 181 % of control, the T/C (dose: 3.0 mg/kg/injection, schedule: Q01DX005 (ip), vehicle: saline with Tween-80) was 192 % of control and 194 % of control and 196 % of control and the T/C (dose: 3.13 mg/kg/injection, schedule: Q04DX003 (ip), vehicle: other) was 278 % of control. The T/C (dose: 3.6 mg/kg/injection, schedule: Q01DX005 (ip), vehicle: saline with Tween-80) was 277 % of control, the T/C (dose: 4.0 mg/kg/injection, schedule: Q04DX003 (ip), vehicle: other) was 155 % of control and 197 % of control and 245 % of control and the T/C (dose: 5.0 mg/kg/injection, schedule: Q04DX002 (ip), vehicle: saline with Tween-80) was 175 % of control. For the same compound, the T/C (dose: 8.0 mg/kg/injection, schedule: Q04DX003 (ip), vehicle: other) was 92 % of control and the T/C (dose: 12.0 mg/kg/injection, schedule: Q01DX005 (ip), vehicle: saline with Tween-80) was 87 % of control.
In the case of `COc1ccc(-c2c(S(C)(=O)=O)nsc2S(C)(=O)=O)cc1`, the T/C [6] is reported as 105 % of control, the T/C [7] is reported as 106 % of control and the T/C [8] is reported as 97 % of control.
For `C[Si]1(C)CC[Si](C)(C)OS(=O)(=O)CS(=O)(=O)O1`, the T/C [1] was 100 % of control and the T/C [3] was 105 % of control.
`CO[C@@H]1C2=CC=CC=C[C@H]2n2c(=O)n(-c3ccccc3)c(=O)n21` was tested, and the T/C [1] was 102 % of control and the T/C [3] was 103 % of control.
With `Cc1onc(-c2c(Cl)cccc2Cl)c1C(=O)SC1=NC(C)N2C(SC(=O)c3c(-c4c(Cl)cccc4Cl)noc3C)=NC(C)N12` (centres undefined) the T/C [2] was 90 % of control and the T/C [4] was 87 % of control.
With `[CH3][Sn]([CH3])([N]=C=S)[N]=C=S` the T/C [9] was 86 % of control and 93 % of control, the T/C [10] was 100 % of control and 102 % of control and 106 % of control and the T/C [11] was 99 % of control and 102 % of control. The T/C (dose: 50.0 mg/kg/injection, schedule: Q01DX009 (ip), vehicle: saline) was 99 % of control and 103 % of control and the T/C (dose: 50.0 mg/kg/injection, schedule: Q01DX009 (ip), vehicle: suspension in saline) was 114 % of control.
In the case of `NC/C(=N\O)c1ccc2ccccc2c1`, the T/C (dose: 60.0 mg/kg/injection, schedule: Q01DX005 (ip), vehicle: Klucel (hydroxypropylcellulose) (HPC)) is reported as 100 % of control, the T/C (dose: 120.0 mg/kg/injection, schedule: Q01DX005 (ip), vehicle: Klucel (hydroxypropylcellulose) (HPC)) is reported as 110 % of control and the T/C (dose: 240.0 mg/kg/injection, schedule: Q01DX005 (ip), vehicle: Klucel (hydroxypropylcellulose) (HPC)) is reported as 105 % of control.
`Cn1c(CC(=O)O)csc1=S` was tested, and the T/C [2] was 93 % of control, the T/C [4] was 94 % of control and the T/C [5] was 89 % of control.
